Results on five compounds are retold here after PMC8032668, “Evaluation of carboxyfluorescein-labeled 7-methylguanine nucleotides as probes for studying cap-binding proteins by fluorescence anisotropy” (Scientific Reports, 2021).

This test deals with T1, eIF4E (Mus musculus, UniProt P63073).
T1 construct: Murine eIF4E (residues 28–217) was expressed in E. coli; made in house; host or cells: E. coli
Description: FA competition (probe-displacement) assay for eIF4E. The class given is binding, Murine. The settings on record: for EC50: HEPES pH 7.2. How it is done: Inclusion bodies containing eIF4E were solubilized in 50 mM HEPES/KOH (pH 7.2) buffer containing 10% glycerol, 6 M guanidine hydrochloride and 2 mM DTT. Protein was then refolded during a two-step dialysis against buffer with decreasing concentration of guanidine hydrochloride in the presence of 100 mM KCl. Subsequently eIF4E was loaded on ion exchange HiTrap SP HP column (GE Healthcare), eluted with linear gradient of 0.1–1 M KCl and finally desalted and polished during a gel filtration purification step on HiLoad 16/600 Superdex 75 pg (GE Healthcare) using 50 mM HEPES pH 7.2, 100 mM KCl, 0.5 mM EDTA, 2 mM DTT buffer. eIF4E was aliquoted and stored in the presence of 10% glycerol at −80 °C. Before each experiment the protein was centrifuged on Ultrafree-MC Centrifugal PVDF filter with […] pore size (Millipore), at 4 °C and 3000×g for 2 min to remove any possible aggregates.
Experiments were carried out at 25 °C in 96-well non-binding microplates with sample volume of 200 µl per well. Two different buffers were used depending on protein used in the assay:
eIF4E assay buffer—50 mM HEPES (pH 7.2), 100 mM KCl, 0.5 mM EDTA, 1 mM DTT.
For competitive binding assay, a mixture containing the probe and the protein was incubated with the tested ligand.
In competitive measurements, a constant concentration of the protein and fluorescent probe and increasing concentration of the test ligand were used. At least 12 point dilutions of the tested compound were used. The experiments were carried out in 96-well plates. Each sample contained a mixture consisting of the probe, tested ligand and buffer (same as for the direct binding assay). The samples were incubated for 10 min at 25 °C with simultaneous shaking, then the protein was added to each well, incubated for additional 3 min, followed by the measurement of fluorescence anisotropy. FA signals were recorded for 20 min with 2 min intervals.

[1] abbreviates: Probe 1a: 10 nM probe 1a and 100 nM eIF4E.
[2] abbreviates: Probe 1b: 1 nM probe 1b and 15 nM eIF4E.
The mark [3] stands for this setting: Probe 1e: footnote c, 1 nM probe 1c and 100 nM eIF4E.

T1 sequence (P63073 28-217): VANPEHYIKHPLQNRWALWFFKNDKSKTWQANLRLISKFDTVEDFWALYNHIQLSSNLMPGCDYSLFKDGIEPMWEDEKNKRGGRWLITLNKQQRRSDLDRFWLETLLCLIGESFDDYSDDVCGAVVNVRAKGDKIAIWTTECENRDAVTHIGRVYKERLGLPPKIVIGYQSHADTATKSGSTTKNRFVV

As for `C[n+]1cn([C@@H]2O[C@H](COP(=O)([O-])OP(O)(=S)OP(=O)(O)OC[C@H]3O[C@@H](n4cnc5c(=O)[nH]c(N)nc54)[C@H](O)[C@@H]3O)[C@@H](O)[C@H]2O)c2nc(N)[nH]c(=O)c21` (single isomer, unassigned) [m^7GppSpG D1], the Hill slope (commonly a measure of the steepness of the concentration-response curve) is given as 1.37 ± 0.02 under setting [1], 1.16 ± 0.18 under setting [2] and 1.10 ± 0.06 under setting [3]. The EC50 (usually the midpoint of the concentration-response curve) is, setting by setting: under setting [1], 184 ± 13 nM; under setting [2], 210 ± 32 nM; under setting [3], 226 ± 43 nM.

In turn, `C[n+]1cn([C@@H]2O[C@H](COP(=O)([O-])OP(O)(=S)OP(=O)(O)OC[C@H]3O[C@@H](n4cnc5c(=O)[nH]c(N)nc54)[C@H](O)[C@@H]3O)[C@@H](O)[C@H]2O)c2nc(N)[nH]c(=O)c21` (single isomer, unassigned) [m^7GppSpG D2] registered a Hill slope under setting [1] of 1.19 ± 0.06, a Hill slope under setting [2] of 1.15 ± 0.06 and a Hill slope under setting [3] of 1.04 ± 0.17. The compound further had a concentration for a half-maximal effect (EC50) under setting [1] of 382 ± 21 nM, a 50% effective concentration (EC50) under setting [2] of 511 ± 109 nM and a concentration giving a half-maximal response (EC50) under setting [3] of 477 ± 89 nM.

Take `CO[C@@H]1[C@H](O)[C@@H](COP([O-])(=S)OP(=O)(O)OP(=O)(O)OP(=O)(O)OC[C@H]2O[C@@H](n3cnc4c(=O)[nH]c(N)nc43)[C@H](O)[C@@H]2O)O[C@H]1n1c[n+](C)c2c(=O)[nH]c(N)nc21` (single isomer, unassigned) [m^7′-OGpSpppG D1, m^7,2′-OGpSpppG D1]: the Hill slope is, setting by setting: under setting [1], 2.07 ± 0.02; under setting [2], 1.64 ± 0.10; under setting [3], 1.46 ± 0.60. In addition, the EC50 by setting is: under setting [1], 68 ± 3 nM; under setting [2], 22.2 ± 3.7 nM; under setting [3], 51.4 ± 6.1 nM.

For `CO[C@@H]1[C@H](O)[C@@H](COP([O-])(=S)OP(=O)(O)OP(=O)(O)OP(=O)(O)OC[C@H]2O[C@@H](n3cnc4c(=O)[nH]c(N)nc43)[C@H](O)[C@@H]2O)O[C@H]1n1c[n+](C)c2c(=O)[nH]c(N)nc21` (single isomer, unassigned) [m^7′-OGpSpppG D2, m^7,2′-OGpSpppG D2], the Hill slope is, setting by setting: under setting [1], 1.94 ± 0.26; under setting [2], 1.37 ± 0.08; under setting [3], 1.40 ± 0.06. The same compound returned an EC50 under setting [1] of 74 ± 10 nM, an EC50 under setting [2] of 34.9 ± 7 nM and an EC50 under setting [3] of 64.3 ± 3.4 nM.

Consider `Cn1c[n+]([C@@H]2O[C@H](COP(=O)(O)OP(=O)([O-])OP(=O)(O)OC[C@H]3O[C@@H](n4cnc5c(=O)[nH]c(N)nc54)[C@H](O)[C@@H]3O)[C@@H](O)[C@H]2O)c2nc(N)[nH]c(=O)c21` [m^7GpppG], for which the Hill slope by setting is: under setting [1], 1.12 ± 0.03; under setting [2], 1.12 ± 0.06; under setting [3], 1.08 ± 0.11. Further, the EC50 is, setting by setting: under setting [1], 413 ± 13 nM; under setting [2], 599 ± 64 nM; under setting [3], 551 ± 75 nM.
